Assay [1] can be described thus: Inhibition of deoxyribose oxidation (superoxide from xanthine oxidase/hypoxanthine; TBA/MDA detection). It counts as biochemical. The following applies: 10 mM. The source says:
Several in vitro tests have been carried out in order to reveal the evoked different antioxidant properties.
Experimental procedure described by J. M. C. Gutteridge in Biochemistry Journal, vol. 224 (1984), p. 761-767: oxidation substrate: deoxyribose
Superoxide anions production system: xanthine oxidase/hypoxanthine detection: thiobarbituric acid/malondialdehyde (MDA)

Assay [2] can be described thus: Inhibition of linoleic acid peroxidation (Fe/ascorbic acid; TBA/MDA). Type of assay: biochemical. To be noted: 25 mM (mixture: 25 mM each), linoleic acid 0.25 mg/ml. The method, then: oxidation substrate: linoleic acid (0.25 mg/ml), free radicals generating system: Fe/ascorbic acid detection: thiobarbituric acid (TBA)/malondialdehyde (MDA)
Assay [3] can be described thus: "Peroxidase" activity: reduction of 13-monoperoxide of linoleic acid (L-OOH). Type of assay: biochemical. To be noted: for "peroxidase" activity: 13-monoperoxide linoleic acid 0.5 mM, control 36.7. The method, then: Lipid peroxides evolution is monitored with the help of 3 methods:
1°) spectrophotometric measure at 233 nm
(O. S. Privett, C. Nickell, W. O. Lundberg, and P. D. Bayer, dans J.Am.Oil Chem. Soc, Vol 32 (1955), P.505-511
2°) Iodometric dosage: M.Hicks' and J. M. Gebicki's method, Analytical Biochemistry, vol 99 (1979), p 249-253.
3°) Chromatography on silica gel plate (hexane/ether/acetic acid 8/7/0.1).
(a) 13-monoperoxide linoleic acid 0.5 mM without reducing agent (preparation according to H. W. Gardner's method Lipids, Vol.10 (1975), p. 248-252).

In assay [4] the test system is cutaneous connective tissue. Put plainly: Repairing of the cutaneous connective tissue after incision in rat (histology). It counts as in vivo, Wistar rats. As for the experimental part:
This experiment has been carried out on a batch of 12 Wistar rats. An incision of a length of 12 mm involving in depth epiderm and derm as a whole was performed. At the end of the healing, the rats are then treated by topical applications of β-alanyl-histadine for three weeks. At the same time, a reference batch of 12 rats have been treated with placebo for the same lasting time of experiment.

A short description of assay [5]: Inhibition of phosphatidylcholine liposome peroxidation (Fe/ascorbic acid; TBA/MDA). To be noted: 10 mM; control 4.4.
Excerpt: oxidation substrate: phosphatidylcholine liposomes
free radicals generating system : Fe/ascorbic acid detection: thiobarbituric acid (TBA)/malondialdehyde (MDA)

The % inhibition is the drop in the measured response relative to a control, in per cent. As to `NCCC(=O)NCCc1c[nH]cn1` [β-alanyl-histamine], the “% inhibition of deoxyribose oxidation” value in assay [1] amounted to 49%. Also, in assay [2], the “% inhibition” value is listed as 47%. Also, in assay [2] (control 7.95), the “MDA per mg of linoleic acid” value is listed as 4.25 mol MDA per mg of linoleic aci. The “"peroxidase" activity” value in assay [3] (10 mM) is 138.1 mol of L-OOH reduced/hour. Further, the “"peroxidase" activity” value in assay [3] (20 mM) is given as 187.5 mol of L-OOH reduced/hour. Besides, in assay [3] (EDTA 0.5 mM), the “"peroxidase" activity with the adding of EDTA” value is “completely inhibited”. Further, the “density and aspect of the constituents of the connective tissue” value in assay [4] (capillary layer versus deep layer) is “obviously the same in the capillary layer and in the deep layer”. For the same compound, in assay [4] (dermic superficial layers), the “thin elastic or reticulin fibres” value is listed as “generally more numerous in the dermic superficial layers”. Also, the fundamental substance result in assay [4] (toluidine blue colouring) is on record as “more abundant than normal”. Also, in assay [4] (topical, after 3 weeks), the horny-layers result was “identical to the ones of the surrounding normal epiderm”, the restoration of epiderm entry is “The epiderm is well restored” and the visibility of scar entry is “the scar is slightly or even not visible on the skin surface”. For the same compound, the “MDA per mg of phospholipids” value in assay [5] is recorded as 2.5 mol MDA per mg of phospholipid.

Source of the values: patent US5792784A, “Coupling product obtained from histamine and an amino acid” (Babizhayev; Marc, priority 1993, dated 1998).
